{
  "source": "patent US20230190887A1",
  "about": "“TARGETING G3BP AGGREGATION TO PREVENT NEURODEGENERATION” (priority 2019, published 2023)",
  "key": {"[1]": {"tested_on": "G3BP1 aggregates in E12.5 motor neurons", "assay": "Endogenous G3BP1 aggregates in MPP+-treated motor neurons", "type": "cell-based, mouse", "conditions": "MPP+ plus 10 μM peptide", "protocol": "Previous studies have shown that, exposure of midbrain neurons results in formation of stress granules. To test whether treatment of motor neurons with mitotoxin MPP+ results in the formation of stress granules the inventors stained the MPP+-treated neurons for G3BP1 protein.\n(A) Quantification of mitotoxin/neurotoxin MPP+-induced degeneration of DIV7 E12.5 motor neuron neurites after exposure of cultures to 100 μM MPP+ and either 10 μM 190-208 G3BP1 or 168-189 control peptide. As controls, neurons treated with solvents were used. (B) Representative images of G3BP1 (green) and NF-labeled (red) E12.5 motor neurons under control or after treatment with 100 μM MPP+ [scale bar=10 μm]. (C) distribution of sizes of endogenous G3BP1 aggregate per 100 μm neurite is shown as indicated bins from motor neurons cultures as treated in (B). (N≥80 neurites over three repetitions; by one-way ANOVA with Tukey HSD post-hoc). […] (D) Endogenous G3BP1 aggregate sizes per 100 μm neurite indicated as bins for motor neurons either untreated or treated with MPP+ alone or with addition of 10 μM 190-208 G3BP1 or 168-189 control peptide. […] (N≥90 over 3 cultures; by one-way ANOVA with Tukey HSD post-hoc)"}, "[2]": {"tested_on": "axonal protein synthesis in DRG neurons", "assay": "Puromycinylation assay of axonal protein synthesis", "type": "cell-based, rat", "conditions": "compared to untreated and 168-189 peptide-treated cultures", "protocol": "Puromycinylation assay. To visualize newly synthesized proteins in cultured neurons, the inventors used the Click-iT® Plus OPP Protein Synthesis Assay Kit per manufacturer's instructions (Invitrogen/Life Technologies). Briefly, 3 DIV cultures were incubated with 20 μM0-propargyl-puromycin (OPP) for 30 min at 37° C. OPP labeled proteins were detected by crosslinking with Alexa Fluor-594 picolyl azide molecule. Coverslips were then mounted with Prolong Gold Antifade (Invitrogen) and imaged with Leica DMI6000 epifluorescent microscope as above. ImageJ was used to quantify the Puromycinylation signals in distal axons and cell bodies."}, "[3]": {"tested_on": "NMJs of TDPΔNLS MN-muscle co-cultures", "assay": "TMRE mitochondrial activity in in vitro NMJs", "type": "cell-based, mouse", "conditions": "20 μM peptide in NMJ compartment", "protocol": "Muscles in co-culture were kept in BA medium for 7 days. To aid NMJ formation, media in all compartments was then replaced to poor neurobasal (PNB) medium, which contained only 1% P/S and 1% Glutamax. Doxycycline was applied to TDP-43ΔNLS cultures only at the proximal MN compartment, in a concentration of 0.1 μg/mL, immediately after plating and throughout the entire experimental timeline. For TDPΔNLS recovery experiments (FIGS. 7-8), Doxycline was […] at the proximal MN compartment after 5 DIV, and the cultures were grown until 11 DIV. For G3BP1 peptide treatment (FIG. 21 at i-j, FIG. 24 at f), 20 μM G3BP1 peptides were added exclusively to the distal compartment, starting after 7 DIV.\nMitochondrial membrane potential was assessed with Tetramethylrhodamine Ethyl, Ester (TMRE; Thermo Fisher) dye. Cultures were incubated with 20 nM TMRE for 30 min in CO2 incubator, then washed 3 times with culture medium. Images of TMRE labeled axons in the distal compartment of MFCs were acquired before and after cultures were treated with Anisomycin (40 μM) or NaAsO2 (250 μM), Cycloheximide (150 μM) in ×60 magnification. […] The intensity of TMRE fluorescence in axonal mitochondria was measured using FIJI, and the fraction of change post/pretreatment was calculated for each image field."}, "[4]": {"tested_on": "E18 midbrain neurons", "assay": "MPP+-induced neurite degeneration of midbrain neurons", "type": "cell-based, rat", "conditions": "DIV7 E18 midbrain neurons, 100 μM MPP+ 16-18 hours, with 10 μM peptide", "protocol": "To test whether the triggering disassembly of stress granules would be protective in Parkinson's and Alzheimer's disease, the inventors employed 1-methyl-4-phenylpyridinium (MPP+)-induced and amyloid β (Aβ)-mediated neurotoxicity models. Rat embryonic day 18 (E18) midbrain neurons cultured for 7 days were treated for 16-18 hours with 100 μM MPP+, see FIGS. 1A and B, while E18 cortical neurons were treated with 1 μM Aβ oligomer, see FIGS. 2A-2B, with or without 10 μM G3BP1 190-208 or 168-189 peptide. As a control, the inventors used non-treated neurons.\nFIG. 1: Cell permeable G3BP1 190-208 peptide rescues MPP+-induced degeneration of midbrain neurons. (A) Representative images for NF-labeled (white) DIV7 E18 midbrain neurons. DIV7 midbrain cultures were treated with 100 μM MPP+ (ii) or control (i) and […] 190-208 G3BP1 peptide (iv) or 168-189 control peptide (iii) [scale bar=100 μm]. (B) Quantification of neurite degeneration in midbrain neurons in control or 100 μM MPP+-treated neurons after addition of 190-208 G3BP1 or 168-189 control peptide. […] (N≥95 over 3 cultures; by one-way ANOVA with Tukey HSD post-hoc)."}, "[5]": {"tested_on": "E18 cortical neurons", "assay": "Axon growth of cortical neurons in microfluidic devices", "type": "cell-based, rat", "conditions": "10 μM peptide applied to axonal compartment at 3 DIV, assessed at 6 DIV", "protocol": "For cortical neuron cultures, E18 cortices were dissected in Hibernate E (BrainBits) and dissociated using the Neural Tissue Dissociation kit (Miltenyi Biotec). For this, minced cortices were incubated in a pre-warmed enzyme mix at 37° C. for 15 min; tissues were then triturated and applied to a 40 μm cell strainer.\nAfter washing and centrifugation, neurons were seeded at a density of 1×10^5 cells per poly-D-lysine-coated microfluidic device (Xona Microfluidics). NbActive-1 medium (BrainBits) supplemented with 100 U/ml of Penicillin-Streptomycin (Life Technologies), 2 mM L-glutamine (Life Technologies), and 1×N21 supplement (R&D Systems) was used as culture medium.\nFor peptide treatments, 10 μM Tat-fused peptides were added to dissociated DRG cultures at 2 or 12 h after plating. Neurite outgrowth was assessed 24 h after addition of peptides. For the cortical cultures, 10 μM peptide was applied to the axonal compartment at 3 d in vitro (DIV) and axonal growth was assessed at 6 DIV. For iMotor neurons, 20 μM peptides were immediately added and neurite growth was assessed 24 h later."}},
  "data": [
    {"substance": "YGNKKNNNQNNN-VVEPEPEPEPEPEPEPVSE [G3BP1 190-208 peptide]", "values": [
      {"measurement": "size of endogenous G3BP1 aggregates per 100 μm neurite", "setting": "[1]", "value": "decrease in the size of aggregates"},
      {"measurement": "size of endogenous G3BP1 aggregates per 100 μm neurite", "setting": "[1]; listed as 190-208 G3BP1 peptide", "value": "decrease in the number of larger G3BP1 granules"},
      {"measurement": "puromycin incorporation in DRG axons (axonal protein synthesis)", "setting": "[2]", "value": "significantly increased puromycin incorporation"},
      {"measurement": "puromycin incorporation in DRG axons (axonal protein synthesis)", "setting": "[2]; listed as 190-208 peptide", "value": "significant increase in axonal protein synthesis"},
      {"measurement": "pre-synaptic TMRE signal (mitochondria activity) in NMJs", "setting": "[3]", "value": "recovered"},
      {"measurement": "neurite degeneration", "setting": "[4]; listed as 190-208 peptide", "value": "significant decrease in MPP+-induced degeneration"},
      {"measurement": "neurite degeneration", "setting": "[4]; listed as G3BP1 190-208", "value": "prevented neurite degeneration"},
      {"measurement": "axon growth", "setting": "[5]", "value": "significant increase in axon growth"}
    ]}
  ]
}
